The text below walks through data of EPA's ToxRefDB 2.

For series [1], the system named is rat. The settings on record: Peri- and post-natal toxicity study (Segment III), sprague dawley, Oral, Gavage/Intubation, dose end: 43 PND.
The test system of series [2] is rat. The settings on record: Multigenerational reproductive toxicity study, sprague dawley, Oral, Feed, dose end: 2 generation.
Series [3] relates to mouse. The settings on record: Multigenerational reproductive toxicity study, cd1, Oral, Feed, dose end: 1 generation.
Series [4] concerns rabbit. The settings on record: Prenatal developmental toxicity study, new zealand white, Oral, Gavage/Intubation, dose end: 19 GD.
For series [5], the system named is rat. The settings on record: Multigenerational reproductive toxicity study, sprague dawley, Oral, Gavage/Intubation, dose end: 2 generation.
In series [6] the test system is rat. Conditions: Multigenerational reproductive toxicity study, sprague dawley, Oral, Feed, dose end: 2 generation. The source holds these as a separate data set.
Series [7] concerns rabbit. Conditions: Prenatal developmental toxicity study, dutch, Oral, Gavage/Intubation, dose end: 19 GD.
The test system of series [8] is rat. The settings on record: Multigenerational reproductive toxicity study, other, Oral, Feed, dose end: 2 generation.
Series [9] deals with rat. Conditions: Prenatal developmental toxicity study, fischer, Oral, Gavage/Intubation, dose end: 15 GD.
Series [10] relates to rat. The settings on record: Peri- and post-natal toxicity study (Segment III), sprague dawley, Oral, Gavage/Intubation, dose end: 40 PND.
The mark [11] stands for this setting: group: developmental, developmental / developmental landmark / vaginal opening / vaginal opening.
The mark [12] stands for this setting: group: maternal, reproductive / reproductive performance / estrous cycle / [other].
Setting [13] is: group: maternal, reproductive / reproductive performance / estrous cycle / [other] + reproductive / reproductive performance / estrous cycle / abnormal + ….
[14] abbreviates: group: parental, systemic / organ weight / liver / absolute + systemic / organ weight / ovary / absolute + systemic / organ weight / pituitary gland / ….
[15] abbreviates: group: offspring, systemic / in life observation / body weight / offspring (pup) weight.
[16] abbreviates: group: parental, systemic / organ weight / ovary / nos.
Setting [17] is: group: reproductive, reproductive / reproductive performance / gestational length / gestational length.
Where [18] appears, read: group: parental, systemic / in life observation / body weight / body weight + systemic / organ weight / kidney / nos + systemic / organ weight / liver / nos….
Where [19] appears, read: group: reproductive, reproductive / reproductive performance / fertility / fertility + reproductive / offspring survival early / live fetuses / live fetuses.
The mark [20] stands for this setting: group: reproductive, reproductive / reproductive performance / fertility / fertility + reproductive / offspring survival early / live fetuses / live fetuses + ….
[21] abbreviates: group: developmental, developmental / developmental malformation / bone / misshapen + developmental / developmental malformation / gallbladder / hypoplasia + ….
[22] abbreviates: group: maternal, systemic / in life observation / body weight / body weight + systemic / in life observation / body weight / body weight gain + systemic / in….
The mark [23] stands for this setting: group: offspring, systemic / organ weight / thymus / absolute.
Where [24] appears, read: group: offspring, systemic / organ weight / thymus / absolute + systemic / organ weight / thymus / relative to body weight.
The mark [25] stands for this setting: group: parental, systemic / organ weight / liver / absolute + systemic / organ weight / liver / relative to body weight.
Where [26] appears, read: group: parental, systemic / organ weight / liver / absolute + systemic / organ weight / liver / relative to body weight + systemic / in life observation / ….
Setting [27] is: group: offspring, developmental / offspring survival late / [other] / [other] + systemic / in life observation / body weight / offspring (pup) weight.
The mark [28] stands for this setting: group: parental, systemic / in life observation / body weight / body weight + systemic / organ weight / ovary / nos.
Setting [29] is: group: parental, systemic / in life observation / body weight / body weight + systemic / organ weight / ovary / nos + systemic / pathology microscopic / ….
[30] abbreviates: group: reproductive, reproductive / reproductive performance / fertility / fertility.
The mark [31] stands for this setting: group: reproductive, reproductive / reproductive performance / fertility / fertility + reproductive / reproductive performance / estrous cycle / corpora lutea.
Setting [32] is: group: cholinesterase, cholinesterase / cholinesterase / cholinesterase / brain cholinesterase (che) + cholinesterase / cholinesterase / cholinesterase / ….
Where [33] appears, read: group: developmental, developmental / developmental malformation / bone / incomplete ossification.
Setting [34] is: group: maternal, reproductive / reproductive performance / resorptions / resorptions + systemic / in life observation / clinical signs / abnormal feces.
Setting [35] is: group: parental, systemic / in life observation / body weight / body weight + systemic / in life observation / food consumption / food consumption.
The mark [36] stands for this setting: group: reproductive, reproductive / offspring survival early / litter size / litter size + reproductive / offspring survival early / live fetuses / live fetuses.
The mark [37] stands for this setting: group: developmental, systemic / in life observation / body weight / fetal weight.
The mark [38] stands for this setting: group: maternal, systemic / in life observation / body weight / body weight gain + systemic / in life observation / food consumption / food consumption.
Setting [39] is: group: maternal, reproductive / reproductive performance / estrous cycle / corpora lutea.
Setting [40] is: group: parental, systemic / pathology microscopic / ovary / follicle count + systemic / pathology microscopic / uterus / thickened.

For orientation: LOAEL means the lowest tested level that showed an adverse finding. What is called NOAEL is the highest dose or exposure tested at which no adverse effect was seen. In series [1] (setting [11]), `COc1ccc(C(c2ccc(OC)cc2)C(Cl)(Cl)Cl)cc1` [Methoxychlor] gave an LEL of 12.5 mg/kg/day, an LOAEL of over 50 mg/kg/day, an NEL of under 12.5 mg/kg/day and an NOAEL of at least 50 mg/kg/day. In series [1] (setting [12]), this compound came in with an LEL of 12.5 mg/kg/day and an NEL of under 12.5 mg/kg/day. Besides, in [1] (setting [13]), the LOAEL is over 50 mg/kg/day and the NOAEL was at least 50 mg/kg/day. Also, in [1] (setting [14]), the LEL amounted to 50 mg/kg/day, the LOAEL was over 50 mg/kg/day, the NEL was 25 mg/kg/day and the no-observed-adverse-effect level (NOAEL) was at least 50 mg/kg/day.
On to `CC1(C)CCC(Cc2ccc(Cl)cc2)C1(O)Cn1cncn1` (stereo not given) [Metconazole], for which, in series [2] (setting [15]), the LEL was determined as 32 mg/kg/day, the LOAEL was found to be 32 mg/kg/day, the NEL is 8 mg/kg/day and the no observed adverse effect level (NOAEL) stood at 8 mg/kg/day. Besides, in [2] (setting [16]), the LEL stood at 32 mg/kg/day, the LOAEL amounted to 32 mg/kg/day, the NEL is 8 mg/kg/day and the NOAEL worked out at 8 mg/kg/day. In series [2] (setting [17]), this compound showed an LEL of 32 mg/kg/day, an LOAEL of over 32 mg/kg/day, an NEL of 8 mg/kg/day and an NOAEL of at least 32 mg/kg/day.
As to `CCCCCOC(=O)c1ccccc1C(=O)OCCCCC` [Dipentyl phthalate], the NEL in series [3] (group: parental, systemic / in life observation / body weight / body weight + systemic / organ weight / kidney / nos + systemic / organ weight / liver / nos) is 2.16 mg/kg/day. Besides, in series [3] (setting [18]), the LEL turned out to be 4.79 mg/kg/day, the lowest observed adverse effect level (LOAEL) is over 4.79 mg/kg/day and the NOAEL is at least 4.79 mg/kg/day. Also, in series [3] (setting [19]), the LEL is 0.76 mg/kg/day and the NEL was under 0.76 mg/kg/day. In series [3] (setting [20]), the lowest-observed-adverse-effect level (LOAEL) is over 4.79 mg/kg/day and the NOAEL was at least 4.79 mg/kg/day.
In the case of `CC1=C(C(=O)Nc2ccccc2)S(=O)(=O)CCO1` [Oxycarboxin], in [4] (setting [21]), the LEL is 750 mg/kg/day, the LOAEL worked out at 750 mg/kg/day, the NEL was 150 mg/kg/day and the no-observed-adverse-effect level (NOAEL) came out at 150 mg/kg/day. Besides, in series [4] (setting [22]), the LEL amounted to 750 mg/kg/day, the LOAEL was determined as 750 mg/kg/day, the NEL turned out to be 150 mg/kg/day and the NOAEL is 150 mg/kg/day.
Take `CCCCc1ccccc1` [Butylbenzene]: in series [5] (setting [23]), the NEL was found to be 100 mg/kg/day and the NOAEL was 100 mg/kg/day. Further, in series [5] (setting [24]), the LEL amounted to 300 mg/kg/day and the LOAEL came to 300 mg/kg/day. In series [5] (setting [25]), the LEL amounted to 30 mg/kg/day and the NEL is under 30 mg/kg/day. In series [5] (setting [26]), the LOAEL is 100 mg/kg/day and the NOAEL stood at 30 mg/kg/day.
On to `CCS(=O)CCSP(=O)(OC)OC` (stereo not given) [Oxydemeton-methyl], for which the LEL in [6] (setting [27]) was found to be 2.1 mg/kg/day; in series [6] (setting [29]), 2.1 mg/kg/day; in series [6] (setting [31]) it was 2.1 mg/kg/day; in [7] (setting [32]), 1.6 mg/kg/day; in [7] (setting [33]), 0.1 mg/kg/day; in series [7] (group: maternal, systemic / in life observation / clinical signs / abnormal feces) it was 0.4 mg/kg/day. Further, the lowest observed adverse effect level (LOAEL) in [6] (setting [27]) is 2.1 mg/kg/day; in series [6] (setting [29]), 2.1 mg/kg/day; in series [6] (setting [31]), 2.1 mg/kg/day; in [7] (setting [32]), 1.6 mg/kg/day; in series [7] (setting [33]) it was 0.1 mg/kg/day; in series [7] (setting [34]) it was over 1.6 mg/kg/day. The NEL in series [6] (setting [27]) is 0.38 mg/kg/day; in series [6] (setting [28]), 0.38 mg/kg/day; in [6] (setting [30]), 0.38 mg/kg/day; in series [7] (setting [32]), 0.4 mg/kg/day; in [7] (setting [33]), under 0.1 mg/kg/day; in series [7] (setting [34]), 0.1 mg/kg/day. For the same compound, the no-observed-adverse-effect level (NOAEL) was 0.38 mg/kg/day in series [6] (setting [27]); 0.38 mg/kg/day in [6] (setting [28]); 0.38 mg/kg/day in series [6] (setting [30]); 0.4 mg/kg/day in series [7] (setting [32]); under 0.1 mg/kg/day in series [7] (setting [33]); at least 1.6 mg/kg/day in series [7] (setting [34]).
As to `Cl/C=C\C[N+]12CN3CN(CN(C3)C1)C2.[Cl-]` [Chloroallyl methenamine chloride], the LEL in series [8] (setting [27]) was found to be 14.8 mg/kg/day; in series [8] (setting [35]), 4.57 mg/kg/day; in [8] (setting [36]), 14.8 mg/kg/day; in [9] (setting [37]), 75 mg/kg/day; in series [9] (setting [38]) it was 25 mg/kg/day. Further, the lowest observed adverse effect level (LOAEL) in [8] (setting [27]) is over 14.8 mg/kg/day; in series [8] (setting [35]), over 13.4 mg/kg/day; in series [8] (setting [36]), over 14.8 mg/kg/day; in series [9] (setting [37]), over 75 mg/kg/day; in [9] (setting [22]), 75 mg/kg/day. In addition, the NEL in series [8] (setting [27]) is 5 mg/kg/day; in [8] (setting [35]), 1.53 mg/kg/day; in [8] (group: reproductive, reproductive / offspring survival early / litter size / litter size), 5 mg/kg/day; in [9] (setting [37]) it was 25 mg/kg/day; in series [9] (setting [38]) it was under 25 mg/kg/day. Moreover, the NOAEL is at least 14.8 mg/kg/day in [8] (setting [27]); at least 13.4 mg/kg/day in series [8] (setting [35]); at least 14.8 mg/kg/day in series [8] (setting [36]); at least 75 mg/kg/day in series [9] (setting [37]); 25 mg/kg/day in series [9] (setting [22]).
Take `CC(C)COC(=O)c1ccc(O)cc1` [Isobutylparaben]: in [10] (setting [39]), the LEL came out at 62.5 mg/kg/day, the LOAEL was over 1000 mg/kg/day, the NEL is under 62.5 mg/kg/day and the NOAEL was at least 1000 mg/kg/day. For the same compound, in [10] (setting [40]), the LEL was found to be 62.5 mg/kg/day, the LOAEL is over 1000 mg/kg/day, the NEL is under 62.5 mg/kg/day and the no-observed-adverse-effect level (NOAEL) is at least 1000 mg/kg/day.
